Laboratory results from US20240188561A1, “ADDITIVES FOR ENHANCING THE PESTICIDAL EFFECTIVENESS OF PESTICIDAL MICROORGANISMS” (priority 2021, published 2024).

What was measured:
Assay in all cases: Additive compatibility with microbial growth (growth slope by OD 620 nm)
Format in all cases: cell-based
Conditions in all cases: additive 0.01-5 %, exposed 4 hours at 16° C., then tryptic soy broth 30° C., slope compared to 0% sample
Pseudomonas fluorescens = test system: Pseudomonas fluorescens
Bacillus subtilis = test system: Bacillus subtilis
Bacillus firmus = test system: Bacillus firmus
[1] = test system: Bacillus amyloliquefaciens

Compound	Influence of additive on microbial growth slope (compatibility), Pseudomonas fluorescens (Pseudomonas fluorescens)	Influence of additive on microbial growth slope (compatibility), Bacillus subtilis (Bacillus subtilis)	Influence of additive on microbial growth slope (compatibility), Bacillus firmus (Bacillus firmus)	Influence of additive on microbial growth slope (compatibility), Bacillus amyloliquefaciens [1]
2-propylheptanol Alkoxylate with 5 moles EO [xi-4]	S	S	S	S
2-propylheptanol Alkoxylate with 7 moles EO [xi-5]	S	S	S	S
2-propylheptanol POE 5 [xi-3]	S	S	S	S
CCCCCCCC/C=C\CCCCCCCC(=O)OC [ii-4, Oleic acid methyl ester]	N	N	N	E (E represents an Enhancing result)
CC(O)C(=O)N(C)C (stereo not shown) [xv-1, Dimethyl lactamide]	N	S	N	S
Butyl alcohol POP 31 POE 31 [vii-7]	N	N	N	N
C8-C10 alkylpolyglycoside [iv-1]	N	N	N	N
C8-C10 dimethyl amide [xv-2]	S	S	S	S
C8-C10 fatty alcohol [xvi-1]	S	S	S	S
C12-C14 dimethyl amide [xv-3]	–	S	S	S
C12-C16 alkylpolyglycoside [iv-2]	N	S	S	S
C12-C18 fatty acid methyl ester [ii-2]	N	N	S	N
Castor Oil POE 16 [vi-3]	N	N	N	N
Castor Oil POE 40 [vi-4]	–	N	N	N
Dibutyl Naphthalene Sulfonate, Sodium [viii-1]	–	E (E represents an Enhancing result)	–	E (E represents an Enhancing result)
Isodecyl alcohol POE6 phosphate ester [xix-3]	S	S	S	S
Magnesium Oleate [xviii-1]	S	S	S	–
Olleyl-Cetyl alcohol (80% Oleyl) [xvi-2]	N	N	S	N
Olleyl-Cetyl alcohol (90% Oleyl) [xvi-3]	S	S	S	S
PEG 400 monolaurate [v-1]	S	N	–	N
PEG 400 monooleate [v-2]	S	N	–	N
Sodium Lauryl ether sulfate [xvii-1]	S	S	S	S
Sodium Tallowate [xviii-2]	S	–	–	–
Sorbitan monolaurate POE 20 [xii-2]	S	S	S	S
Sorbitan monooleate POE 20 [xii-3]	N	N	S	N
Sorbitan monooleate [xii-1]	E (E represents an Enhancing result)	S	S	S
Tallow amine POE20 [xiii-2]	–	S	S	S
